Legend:
NF-κB/p65 = NF-κB/p65 activation immunolabelling in 2D fibroblast cultures stimulated with LPS or TNF-α; assay type: cell-based, human; conditions: for effect on LPS induced NF-κB activation / effect on TNF induced NF-κB activation: 10^−4 and 10^−3M; for effect on LPS induced NF-κB activation: LPS 100 ng/mL; for effect on TNF induced NF-κB activation: TNF-α 1000 U/mL
Protocol: LPS from E. coli serotype O111:B4 (Sigma-Aldrich) at 100 ng/mL or TNF-α (Sigma-Aldrich) at 1000 U/mL was used as a positive control for activation of NF-κB in fibroblasts. In preliminary experiments, Ibuprofen (10^−3 and 10^−4 M, sodium salt and isomer mixture; Sigma-Aldrich, UK) was used to downregulate NF-κB activation. Then the 10% Ibuprofen loaded PLGA scaffolds (75/25, 50/50 and a 1:1 blend of these two) were examined. Negative controls were produced by incubating cells in normal DMEM. All experiments were performed in triplicate.
Following the Ibuprofen treatments, monolayers were washed in PBS and the cells were fixed in 10% formalin (500 μL per well) for 30 minutes. Cell monolayers were washed a further three times in PBS, prior to cell permeabilisation with 0.1% Triton X100 for 20 minutes. Subsequently, cells were washed three times with PBS. Unreactive binding sites were blocked by adding a 5% dried milk powder solution to each well for 1 hour. A further three washes in PBS were performed prior to incubation with the first antibody solution. The first antibody (rabbit polyclonal antihuman IgG NF-κB p65 C-20, Santa Cruz Biotechnology Inc., CA) was added at a concentration of 1:100 in 1% PBS-dried milk powder. Cells were incubated in the antibody solution at 4° C. for 18 hours. The cells were washed three more times in PBS. Afterwards, cells were incubated with biotinylated goat anti-rabbit (1:1000) (Vector Laboratories, CA) in 1% PBS-milk powder. The cells were then washed a further three times in PBS. Streptavidin-FITC (Vector Laboratories, CA) conjugate was then added to the wells at a concentration of 1:100 in PBS. A further three washes in PBS were performed. After this time, the fluorescent staining were visualised using an AXON image express system (Axon Instruments/Molecular Devices, Union City, Calif.). Briefly, fluorescence micrographs of immunolabelled samples were taken using epifluorescent illumination at λex 495 nm λem 515 nm (for FITC visualisation); λex 358 nm λem 461 nm (for DAPI visualisation). DAPI fluorescence was used to identify nuclear position. The boundary between nucleus and cytoplasm was delimited by analysis software (ImageXpress Console 1.0) using DAPI micrographs in a sample of at least 100 cellular counts per visual field. Within the defined region, the intensity of FITC (NF-κB/p65) labelling was used to calculate activation for each micrograph and sample. […] The analysis of the micrographs was done in triplicate.

human fibroblast (HDF) = assay: MTT-ESTA assay of cell metabolic activity, 2D HDF cultures; assay type: cell-based; conditions: for % Viability: 24 h exposure, HDF; for concentration showing a cytotoxic response: fibroblast viability
Protocol: (§1) Normal human fibroblasts were isolated and cultured as described previously (Ralston et al., 1997). […] Keratinocytes were cultured in Dulbecco's modified Eagle's medium (DMEM) supplemented with 10% (v/v) foetal calf serum (FCS), 2 mM glutamine, 0.625 μg/ml amphotericin B, 100 IU/ml penicillin and 100 μg/ml streptomycin.

[1] = as above; assay type: cell-based, human; conditions: human, normal human dermal fibroblasts (HDF), 2D monolayer culture, 24 h exposure, HDF
Protocol: as §1

Compound | activation of NF-κB (NF-κB/p65; stimulus alone, LPS 100 ng/mL or TNF-α 1000 U/mL) | effect on LPS induced NF-κB activation (NF-κB/p65) | effect on TNF induced NF-κB activation (NF-κB/p65) | % Viability (human fibroblast (HDF); Treatment 10^−2) | concentration showing a cytotoxic response (human fibroblast (HDF)) | viability at 24 h ([1]; Treatment 10^−3) | viability at 24 h ([1]; Treatment 10^−4) | viability at 24 h ([1]; Treatment 10^−5) | viability at 24 h ([1]; Treatment 10^−6) | % Viability (human fibroblast (HDF); Treatment 10^−3) | % Viability (human fibroblast (HDF); Treatment 10^−4) | % Viability (human fibroblast (HDF); Treatment 10^−5) | % Viability (human fibroblast (HDF); Treatment 10^−6)
TNF-α | 80% |  |  |  |  |  |  |  |  |  |  |  | 
CC(C)Cc1ccc(C(C)C(=O)[O-])cc1.[Na+] (centres unmarked) [Ibuprofen Sodium Salt] |  | significantly reducing the response | significantly reducing the response | 38.25% | 10^−2 M | 90.3% | 98.2% | 100% | 102% |  |  |  | 
CC(C)Cc1ccc(C(C)C(=O)O)cc1 (racemic) [Ibuprofen isomer mixture, 2-(4-isobutylphenyl)propionic acid] |  | significantly reducing the response | significantly reducing the response | 7.20% | 10^−2 M |  |  |  |  | 101.11% | 108.56% | 111.80% | 109.43%
